Data on twelve molecules can be found in US5550124A, “Use of peripheral-type benzodiazpine sites for treatment of CNS trauma or disease” (priority 1991, dated 1996).

The conditions of data set [1]: in vivo; cited from earlier work.
For data set [2] the following is noted: dogs; cited from earlier work.
The subject of data set [3] is NMDA receptor. Particulars: in vivo; cited from earlier work.
Data set [4] deals with NMDA receptor. As to conditions: rats; cited from earlier work.
Data set [5] concerns NMDA receptor. As to conditions: cats; cited from earlier work.
For data set [6] the following is noted: rats; cited from earlier work.
For data set [7] the following is noted: in vivo; cited from earlier work. This is another data set of the same source.
For data set [8] the following is noted: in vivo; cited from earlier work. The source holds these as a separate data set.
For data set [9], the target named is T1, peripheral-type BZ receptors (Rattus norvegicus, UniProt P16257).
T1 construct: displacement of ^3 H-RO5-4864 in brain homogenates; from tissue; host or cells: brain homogenates
Put plainly: Competitive binding assay, displacement of 3H-Ro5-4864 in brain homogenates. An excerpt:
Sprengel, R., et al., "Molecular cloning and expression of cDNA encoding a peripheral-type benzodiazepine receptor," J. Biol. Chem., 264:20415-20421 (1989).
Some of these compounds were further tested in in vivo studies.

The nature of data set [10]: Physical trauma (head injury) model, grip score 18 hours post-injury. The data set is classed as in vivo, mice (male CF-1). An excerpt: Two tests which can be readily performed are observation of grip score and observation of grip time in injured test animals. Another test for agonist activity is for decrease in mortality caused by the CNS injury. Mice can be treated to simulate CNS injury by a variety of methods: they can be deprived of oxygen by administration of KCN (Nauquier, A., et al., Arch. Int. Pharmacodyn., 249:330 (1981)) or by temporary tying-off of the carotid artery (Braughler, J. M. and Lainer, M. J., "The effects of large doses of methylprednisolone on neurologic recovery and survival in the Mongolian gerbil following three hours of unilateral carotid occlusion," CNS Trauma, 3:153-162 (1986)). Alternatively, blows can be administered to the head or the spinal cord of the test animal.
The following protocol was used:
The compound to be tested was weighed and suspended in a polyethylated castor oil solution ("Cremophore") (21% Cremaphore, 3% ethanol in 0.9% saline). The concentration of the solution was then adjusted for administration at a dose of 0.01 cc/gm body weight. For example, for a dose of 10 mg/Kg, the solution was made 1.0 mg/cc, and a 23 g mouse would receive 0.23 cc of this solution. The solution was sonicated for approximately 90 minutes, or until the compound is dissolved.
Male CF-1 mice (15-25 gm) were weighed and marked for identification purposes. Each individual mouse was restrained by grasping the dorsal skin of the neck until the mouse was still. An impounder was used to administer the trauma. The impounder consists of a weight suspended over the animal's head at a height sufficient to produce significant injury when dropped, and a means for immobilizing the animal (in this case, room to hold the animal in place). […] 62:882-887, 883. The mouse was positioned properly under the impounder, and the weight was released from its preset height (11 CM).
Immediately following injury, the mouse was placed under a heat lamp. At various times after injury, the drug was administered intravenously at the specified dose. The time of injury and the time of injection were recorded.
B) Measurement of Grip Score
Each mouse was evaluated 18 hours post-injury for neurological deficit. The delay of 18 hours provided time for any sedative effects of the compound to wear off. It also provided time for healing to occur. Mortality was also noted. A standard grip test, as described in Hall et al., J. Neurosurg. 68:456-461 (1988), was used. The apparatus consisted of a taut string suspended between two uprights, 60 cm in length and 40 cm above a padded table.
Each mouse was picked up by the tail and placed on the string. […] The tail was then released. Grip score was recorded based on the mouse's performance while on the string. The following criteria were used (taken from Hall, E. D., J. Neurosurg. 62:882-887 (1985)):
C) Statistical Analysis Results of the above test were analyzed for statistical significance using the Mann-Whitney U test. See R. V. Tallarida & R. B. Murray, MANUAL OF PHARMACOLOGIC CALCULATIONS WITH COMPUTER PROGRAMS, Springer-Verlag, N.Y., pp. 57-59 (1981). This test was used to compare each set of grip scores for a particular dose of a particular compound against the grip scores for the control group.

The format of data set [11] is in vivo, mice (male CF-1).
For data set [12] the following is noted: in vivo; cited from earlier work. This is another data set of the same source.
The conditions of data set [13]: in vivo; cited from earlier work. This is another data set of the same source.
For data set [14] the following is noted: administered post-ischemia in animals; cited from earlier work.
For data set [15] the following is noted: stroke treatment; cited from earlier work.
Another data set relates to platelet aggregation. As to conditions: cited from earlier work.
The conditions of data set [16]: ischemic baboons; cited from earlier work.

Molecules are shown by their SMILES. “Also recorded” adds a separate entry of the source. Like-named read-outs stand apart in the source and are kept apart here.

On to `CN1C(=O)CN=C(c2ccccc2)c2cc(Cl)ccc21` [Diazepam, 7-Chloro-1,3-dihydro-1-methyl-5-phenyl-2H-1,4-benzodiazepin-2-one], for which, in data set [1], the “effect in cerebral ischemia” value was “somewhat effective in treatment of cerebral ischemia”.

Consider `Fc1ccc(C(c2ccc(F)cc2)N2CCN(C/C=C/c3ccccc3)CC2)cc1` [Flunarizine], for which the “effect on cerebral blood flow” value in data set [2] is reported as “no increase in cerebral blood flow or improvement in cerebral metabolism”.

As to `C[C@]12N[C@H](Cc3ccccc31)c1ccccc12` [MK-801], the adverse reactions result in the data set with NMDA receptor [3] was “respiratory depression and elevated CO2 level; also recorded: behavioral changes, including a psychotic-like response and diminished cognitive and mental status”. Also, the “effect on blood pressure” value with NMDA receptor [4] and in the data set on NMDA receptor [5] was “increases blood pressure” in each case.

Consider `COC(=O)C1=C(C)NC(C)=C(C(=O)OC)C1c1ccccc1[N+](=O)[O-]` [Nifedipine], for which, in [6], the “effect on cerebral blood flow” value is “antagonize cerebral blood flow”.

On to `CCCCC[C@H](O)/C=C/[C@@H]1[C@H]2C/C(=C/CCCC(=O)O)O[C@H]2C[C@H]1O` [PGI2, prostaglandin I2], for which the half life in data set [7] was 3 min. Also, the adverse effects entry in data set [8] is reported as “tendency to precipitate hypotension”.

Consider `CCC(C)N(C)C(=O)c1cc2ccccc2c(-c2ccccc2Cl)n1` (stereo not drawn) [PK 11195, N-methyl-N-1-(1-methyl,propyl)(2-chlorophenyl)-3-isoquinoline carboxamide], for which the “binding affinity to peripheral-type BZ sites (in words)” value in [9] is “high degree of affinity”. The “grip score 18 hours post trauma (in words)” value in [10] (0.1 mg/kg i.v., FIG. 1) is “statistically significant increase in the grip score”. Moreover, the “neurological deficit score (grip score)” value in [10] (1 mg/kg i.v., 5 min post injury, control 2.06 ± 0.23, P<0.05) is listed as 3.07 ± 0.47; in [10] (1 mg/kg i.v., 30 min post injury, control 1.54 ± 0.43, P<0.004), 3.53 ± 0.36; in [10] (1 mg/kg i.v., 60 min post injury, control 2.54 ± 0.51), 1.93 ± 0.42; in data set [10] (10 mg/kg i.v., 5 min post injury, control 2.06 ± 0.23, P<0.05), 2.89 ± 0.40; in data set [10] (10 mg/kg i.v., 30 min post injury, control 1.56 ± 0.50), 2.53 ± 0.40; in data set [10] (10 mg/kg i.v., 60 min post injury, control 1.38 ± 0.60, P<0.03) it was 2.62 ± 0.40. Moreover, the “grip score versus controls (in words)” value in data set [10] (10 mg/kg, administered up to 1 hour post-injury) is reported as “statistically significant increase in grip score”. In [10] (grip score 18 h post trauma, FIGS. 1-8), the “effectiveness in treatment of CNS trauma/damage (in words)” value is “effective”. In addition, in [11] (after KCN, increasing dose of compound, FIG. 10), the “percent survival (in words)” value is given as “increasing the dose of the compound increases the percent survival”. For the same molecule, the “protection against KCN mortality (in words)” value in [11] (varied KCN dose, FIG. 11) is “protect against higher doses of KCN”. Moreover, the “effect in cardiac ischemia” value in [12] is reported as “ineffective in treating cardiac ischemia”.

For `CC(=O)CCCCn1c(=O)c2c(ncn2C)n(C)c1=O` [Pentoxifylline], the “effect on blood viscosity / red blood cell flexibility” value in data set [13] is on record as “improves the oxygenation of ischemic tissues by decreasing blood viscosity”. For the same molecule, the adverse effects entry in [8] is “chest pain, dyspepsia, nausea, vomiting, dizziness, headache, tremor, anxiety, blurred vision, malaise, and others”.

On to `CN(C)CCCSc1ccccc1NC(=O)/C=C/c1ccccc1` [cinanserin], for which the “effect on neurologic function” value in [14] is “help preserve neurologic function”.

On to `C[C@]12CCC(=O)C=C1CC[C@@H]1[C@@H]2C(=O)C[C@@]2(C)[C@H]1CC[C@]2(O)C(=O)CO` [cortisone], for which, in data set [15], the “effect on neurologic outcome, morbidity or mortality in stroke” value is “no difference in morbidity or mortality”.

With `CN1CCC(=C2c3ccccc3C=Cc3ccccc32)CC1` [cyproheptadine], the “effect on neurologic function” value in data set [14] is “help preserve neurologic function”.

Regarding `C[C@@H]1C[C@H]2[C@@H]3CCC4=CC(=O)C=C[C@]4(C)[C@@]3(F)[C@@H](O)C[C@]2(C)[C@@]1(O)C(=O)CO` [dexamethasone], the “effect on neurologic outcome, morbidity or mortality in stroke” value in [15] is listed as “no difference in morbidity or mortality”. The adverse effects entry in data set [8] was “serious exacerbations of diabetes mellitus”.

Take `COc1ccc2c(c1)c(CC(=O)O)c(C)n2C(=O)c1ccc(Cl)cc1` [indomethacin]: the “effect on platelet aggregation” value in the data set on platelet aggregation was “inhibit platelet aggregation”. For the same molecule, the “edema, cerebral blood flow and carbon dioxide reactivity” value in [16] was “significantly increase edema and decrease cerebral blood flow and carbon dioxide reactivity”.
